In ChEMBL document CHEMBL5579845, “Ophiobolin A derivatives with enhanced activities under tumor-relevant acidic conditions” (2024):

How the values were obtained:
[1] = Antiproliferative activity against human GBM43 cells cultured under pH 6.5 assessed as reduction in cell viability by measuring growth inhibition incubated for 48 hrs by MTT assay; assay type: functional
[2] = Antiproliferative activity against human GBM43 cells cultured under pH 7.5 assessed as reduction in cell viability by measuring growth inhibition incubated for 48 hrs by MTT assay; assay type: functional
[3] = Potency index, ratio of ophiobolin A GI50 to test compound GI50 for antiproliferative activity against human GBM43 cells cultured under pH 6.5 assessed as reduction in cell viability by measuring growth inhibition incubated for 48 hrs by MTT assay; assay type: functional
U-87 MG = test: Antitumor activity against human U-87 MG cells stably expressing luciferase reporter xenografted in female athymic nude mouse assessed as median survival time at 24 mg/kg, iv administered for six times starting from day 12 post tumor development and measured upto 60 days post tumor development; assay type: functional, U-87MG ATCC; settings: time <= 48 day

SMILES	GI50 [1] [nM]	GI50 [2] [nM]	RatioGI50 [3]	MST (U-87 MG) [days]
CO[C@H]1O[C@@]2(OC)C[C@@](C)(O)[C@H]3C[C@@]4(C)CC[C@@]5(O[C@@H](C=C(C)C)C[C@@H]5C)[C@@H]4C/C=C/1[C@H]32	500			
CC(C)=C[C@H]1C[C@H](C)[C@]2(CC[C@]3(C)C[C@H]4[C@H](C(=O)C[C@@]4(C)O)/C(=C/OCCCl)[C@H](O)C[C@H]32)O1	650	1070		
CC(C)=C[C@H]1C[C@H](C)[C@]2(CC[C@]3(C)C[C@H]4[C@H](C(=O)C[C@@]4(C)O)/C(C(O)OCCBr)=C\C[C@H]32)O1 (some centres not stated)	150	270	2	
CC(C)=C[C@H]1C[C@H](C)[C@]2(CC[C@]3(C)C[C@H]4[C@H](C(=O)C[C@@]4(C)O)/C(C(O)OC(C)C)=C\C[C@H]32)O1 (some centres not stated)	340			
COCCOC(O)/C1=C/C[C@@H]2[C@](C)(CC[C@@]23O[C@@H](C=C(C)C)C[C@@H]3C)C[C@H]2[C@@H]1C(=O)C[C@@]2(C)O (some centres not stated)	1090			
CC(C)=C[C@H]1C[C@H](C)[C@]2(CC[C@]3(C)C[C@H]4[C@H](C(=O)C[C@@]4(C)O)/C(C(O)OCCF)=C\C[C@H]32)O1 (some centres not stated)	1700	2890		
CC(C)=C[C@H]1C[C@H](C)[C@]2(CC[C@]3(C)C[C@H]4[C@H](C(=O)C[C@@]4(C)O)/C(=C/OCCF)[C@H](O)C[C@H]32)O1	1500	2770		
CC(C)=C[C@H]1C[C@H](C)[C@]2(CC[C@]3(C)C[C@H]4[C@H](C(=O)C[C@@]4(C)O)/C(C(O)OCCCl)=C\C[C@H]32)O1 (some centres not stated)	750	2770		
CC(C)=C[C@H]1C[C@H](C)[C@]2(CC[C@]3(C)C[C@H]4[C@H](C(=O)C[C@@]4(C)O)/C(=C/OCCBr)[C@H](O)C[C@H]32)O1	140	490	2	
CC(C)=C[C@H]1C[C@H](C)[C@]2(CC[C@]3(C)C[C@H]4[C@H](C(=O)C[C@@]4(C)O)/C(=C/OCC(F)(F)F)[C@H](O)C[C@H]32)O1	830			
CO[C@@H]1O[C@@]2(OC)C[C@@](C)(O)[C@H]3C[C@@]4(C)CC[C@@]5(O[C@@H](C=C(C)C)C[C@@H]5C)[C@@H]4C/C=C/1[C@H]32	1460			
COc1cccc2c1C(=O)c1c(O)c3c(c(O)c1C2=O)C[C@@](O)(/C(CO)=N/NC(=O)CCCCCN1C(=O)C=CC1=O)C[C@@H]3O[C@H]1C[C@H](N)[C@H](O)[C@H](C)O1 [ALDOXORUBICIN]				62
CC(C)=C[C@H]1C[C@H](C)[C@]2(CC[C@]3(C)C[C@H]4[C@H](C(=O)C[C@@]4(C)O)/C(C=O)=C\C[C@H]32)O1 [OPHIOBOLIN A]	290	220		
